Where two headings read alike, the source gives them in different places. *1 amine or outer side, *2 acyl side, *3 side chain or, on linkers, in order; H or OH if unused. Where a SMILES comes first, the peptide text is derived from it. Side-chain parts run from the residue outwards. [ ]: non-standard residue; d: D form. The star is where a group is joined. C20 diacid = O=C(O)CCCCCCCCCCCCCCCCCCC(=O)*; γGlu = O=C(O)[C@H](CCC(=O)[*:2])N[*:1]; AEEA = NCCOCCOCC(=O)O; Aib = CC(C)(N)C(=O)O

Series [1] concerns the target T1, human GLP-1 R (Homo sapiens, UniProt P43220).
T1 construct: expressed in transfected cells
Put plainly: Human GLP-1 receptor (GLP-1 R) activity assay, cAMP induction (AlphaScreen) in HEK293 cells. In kind it is cell-based. The conditions noted are these: Table 2; HEK293 cells expressing human GLP-1 R; read-out: hGLP1-R cAMP EC50 average value. In outline:
(§1)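 Stable HEK293 clones expressing human GIP R or GLP-1 R, seeded 1 day before; cells washed in Tyrode's buffer (10 mM HEPES, pH 7.4), stimulated, then lysed. cAMP measured by AlphaScreen bead competition (1 h, room temperature, dark). EC50 = concentration giving half-maximal cAMP elevation, from curves of absolute cAMP (nM) vs log concentration.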
For orientation: Bead proximity is the source of the signal in Alpha formats.

Series [2] is described as follows: Pharmacokinetics of selected compounds in mice. The note with it: male, C57BL/6J, mouse, plasma. In kind it is in vivo, C57BL/6J mice. Put shortly: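 Male C57BL/6J mice (~25 g) got single s.c. or i.v. bolus (50, 100 or 200 nmol/kg) in mannitol phosphate buffer, pH 7.5; plasma sampled at 8 timepoints to 72 h (s.c.) or 48 h (i.v.), two mice per point, measured by LC-MS/MS. Non-compartmental T½, Tmax and bioavailability (AUCinf s.c./i.v.) from mean concentrations.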

The target of series [3] is T2, human GIP R (Homo sapiens, UniProt P48546).
T2 construct: expressed in transfected cells
T2 sequence (P48546 22-466): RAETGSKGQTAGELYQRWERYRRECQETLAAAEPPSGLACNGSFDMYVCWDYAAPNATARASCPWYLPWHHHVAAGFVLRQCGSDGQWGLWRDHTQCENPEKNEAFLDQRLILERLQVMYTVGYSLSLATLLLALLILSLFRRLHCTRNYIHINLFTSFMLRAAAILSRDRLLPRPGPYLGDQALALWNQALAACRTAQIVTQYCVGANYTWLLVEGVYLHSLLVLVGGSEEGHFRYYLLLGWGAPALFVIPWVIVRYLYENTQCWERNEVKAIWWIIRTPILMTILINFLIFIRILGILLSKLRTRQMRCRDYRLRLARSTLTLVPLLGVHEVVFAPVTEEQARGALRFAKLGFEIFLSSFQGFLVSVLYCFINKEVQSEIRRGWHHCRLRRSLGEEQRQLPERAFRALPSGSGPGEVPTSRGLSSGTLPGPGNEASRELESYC
Put plainly: Human GIP receptor (GIP R) activity assay, cAMP induction (AlphaScreen) in HEK293 cells. In kind it is cell-based. The conditions noted are these: Table 2; HEK293 cells expressing human GIP R; read-out: hGIP-R cAMP EC50 average value. In outline:
as §1

For series [4], the target named is T3, human GIP receptor (human) (UniProt P48546).
T3 sequence: T2 sequence (P48546 22-466)
Put plainly: cell-based or functional assay.

T1 sequence (P43220 24-463): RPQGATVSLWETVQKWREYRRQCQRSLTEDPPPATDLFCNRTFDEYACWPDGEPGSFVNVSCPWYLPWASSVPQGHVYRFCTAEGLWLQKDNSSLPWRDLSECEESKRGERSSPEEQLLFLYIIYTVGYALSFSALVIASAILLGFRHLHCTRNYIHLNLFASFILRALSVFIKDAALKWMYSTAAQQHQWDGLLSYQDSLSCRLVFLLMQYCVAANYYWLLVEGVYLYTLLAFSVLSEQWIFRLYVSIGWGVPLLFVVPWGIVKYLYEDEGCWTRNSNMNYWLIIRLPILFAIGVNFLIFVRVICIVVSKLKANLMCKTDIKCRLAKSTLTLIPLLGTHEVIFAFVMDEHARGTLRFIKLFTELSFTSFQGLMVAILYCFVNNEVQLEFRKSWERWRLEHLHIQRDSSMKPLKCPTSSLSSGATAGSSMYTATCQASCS

The EC50 is the concentration at which the effect is half-maximal. What is called half-life is the time needed for the level to fall by half in the phase considered. For orientation: bioavailability means the share of a dose that reaches the circulation, judged against a reference dose that is usually intravenous. Lower therefore signals poor availability. The Tmax is the time from dosing to the highest level. Turning to `CC[C@H](C)[C@H](NC(=O)[C@H](CO)NC(=O)[C@H](CC(C)C)NC(=O)[C@H](CC(=O)O)NC(=O)[C@H](CO)NC(=O)[C@@H](NC(=O)[C@H](Cc1ccccc1)NC(=O)[C@@H](NC(=O)CNC(=O)[C@H](CCC(=O)O)NC(=O)C(C)(C)NC(=O)[C@@H](N)Cc1ccc(O)cc1)[C@@H](C)O)[C@@H](C)O)C(=O)N[C@@H](C)C(=O)N[C@@H](CC(C)C)C(=O)N[C@@H](CCC(=O)O)C(=O)N[C@@H](CCCCN)C(=O)N[C@@H](CCCCNC(=O)COCCOCCNC(=O)COCCOCCNC(=O)CC[C@H](NC(=O)CCCCCCCCCCCCCCCCCCC(=O)O)C(=O)O)C(=O)N[C@@H](C)C(=O)N[C@@H](CCC(N)=O)C(=O)N[C@@H](CCCNC(=N)N)C(=O)N[C@@H](C)C(=O)N[C@@H](Cc1ccccc1)C(=O)N[C@H](C(=O)N[C@@H](CCC(=O)O)C(=O)N[C@@H](Cc1c[nH]c2ccccc12)C(=O)N[C@@H](CC(C)C)C(=O)N[C@@H](CC(C)C)C(=O)N[C@@H](C)C(=O)N[C@@H](CCC(N)=O)C(=O)N[C@@H](CCCCN)C(=O)N1CCC[C@H]1C(=O)N[C@@H](CO)C(=O)N[C@@H](CO)C(=O)NCC(=O)N[C@@H](C)C(=O)N1CCC[C@H]1C(=O)N1CCC[C@H]1C(=O)N1CCC[C@H]1C(=O)N[C@@H](CO)C(N)=O)C(C)C` [Compound 34] (H-Y[Aib]EGTFTSDLSIALEKK([AEEA-AEEA-γGlu-C20 diacid])AQRAFVEWLLAQKPSSGAPPPS-NH2), the EC50 in series [1] is 0.015 nM; in series [3], 0.012 nM. The half-life in series [2] (iv, single i.v. bolus, read-out: T½ terminal elimination half-life, i.v. (converted)) is 14.9 h; in series [2] (sc, single s.c. bolus, read-out: T½ terminal elimination half-life, s.c. (converted)) it was 17.1 h. The same molecule returned a bioavailability in series [2] (subcutaneous, AUCinf (s.c.)/AUCinf (i.v.)x100, values marked * capped to 100%) of 79%. The Tmax in series [2] (sc, single s.c. bolus) was determined as 8 h.

For the molecule “hGIP (from UniProt P09681 52-93) (ligand)”, the EC50, hGIP-R cAMP in series [4] came out at 0.003 nM.

For the molecule “hGLP-1 (from UniProt P01275 92-128) (ligand)”, in series [4], the EC50, hGIP-R cAMP is greater than 10 nM.

For the origin of these results see patent publication US10093713B2, “GIP-GLP-1 dual agonist compounds and methods” (priority 2013, dated 2018).
